Experimental data as given in ChEMBL document CHEMBL5226351, “Sycosterol A, an α-Synuclein Inhibitory Sterol from the Australian Ascidian Sycozoa cerebriformis” (J Nat Prod, 2021).
Active and inactive are the calls of the source. The calls are words filed in the database; no cut-off is given here.

Experiments:
[1] = target: Alpha-synuclein (Homo sapiens) (UniProt P37840); assay: Binding affinity to human alpha-Synuclein at compound to protein molar ratio of 5:1 incubated for 3 hrs by mass spectroscopy analysis
[2] = target: Alpha-synuclein (Homo sapiens) (UniProt P37840); assay: Inhibition of human alpha-Synuclein aggregation at 400 uM incubated for 72 hrs under shaking condition by Thioflavin T based fluorimeter assay relative to control
[3] = target: Alpha-synuclein (Homo sapiens) (UniProt P37840); assay: Inhibition of human alpha-Synuclein aggregation at compound:protein ratio of 1:5 incubated for 72 hrs under shaking condition by Thioflavin T based fluorimeter assay relative to control; conditions: concentration not given here

Row | Compound | Activity [1] | inhibition [2] [%] | inhibition [3] [%]
1 | CC(CCC[C@@H](C)[C@H]1[C@H](O)[C@@H](O)[C@@H]2[C@]1(C)CC[C@@H]1[C@@]3(C)CC[C@@H](O)C[C@@H]3C[C@@H](O)[C@]12O)COS(=O)(=O)O (some centres undefined) | Active | 46.2 | –
2 | O=C(O[C@@H]1Cc2c(O)cc(O)cc2O[C@@H]1c1cc(O)c(O)c(O)c1)c1cc(O)c(O)c(O)c1 | Active | – | 93.6
